Patent US6521179B1, “Sterilization” (Biomedical Design, Inc., priority 1999, dated 2003)

Assays:
[1] = system: Bacillus Subtilis (ATCC 9372)spores; experiment: Sterilization of spores inoculated in cups with cross-linked porcine heart valve leaflets (Example 1); assay type: cell-based; conditions: EDC 25 mM, 50 mM and 70 mM, 100 mM ethanolamine, 20% isopropyl alcohol, HEPES pH 6.5, 40° C., after one day
Experimental: When porcine aortic roots that are fixed are employed, they are cross-linked according to the method described in U.S. Pat. No. 5,447,536 or glutaraldehyde-fixed or cross-linked or fixed with any other method used to preserve tissue. After fixation, the tissue is stored in 10 mM HEPES, 0.85% NaCl, 20% isopropyl alcohol, pH 7.4, at 4° C. The sterility tests described in the following examples are conducted in the presence of bovine pericardium or porcine heart valve tissue. After such tissue is inoculated with microorganisms for test purposes and then submitted to sterilization, the solution is filtered through a 0.45 micron filter attached to a funnel (filter funnel). The tissue is washed for 20 minutes in a reciprocating shaker in the presence of peptone water containing Tween 80 in order to extract all indigenous spores or microorganisms from the tissue. This solution is then filtered through the same respective filter. The filters are then rinsed with peptone water to eliminate residual chemicals on the membrane that may prevent growth of the organisms tested. The membrane filters are incubated on solid agar TSA plates (Millipore) at about 32° to 33° C., e.g. 32.5° C. All microbiological testing is performed in a biological laminar flow hood to prevent contamination. […]

[2] = EDC sterilization of pretreated cross-linked porcine aortic root tissue without lower alkanol; conditions: tissue pretreated with acetic anhydride or a mixture of TRIS and isopropylamine; absence of a lower alkanol
spores Bacillus subtilis = experiment: Sterilization efficacy of EDC with blocking agents, spores in glass ampoules (Example 3); assay type: cell-based; conditions: EDC in HEPES buffer containing 20% isopropyl alcohol, in the presence or absence of tissue
Experimental: EDC sterilization in HEPES buffer containing 20% isopropyl alcohol, carried out either in the presence or in the absence of tissue, leads to complete kill of the spores Bacillus subtilis. The following experiment was designed to test whether the sterilization efficacy of EDC remains substantially unaffected by the presence of […]. […] After 10 minutes, 10 mL of Solutions A, B, C, D, E and F containing 25 mM EDC were added, the ampoules were heat-sealed and placed at 40° C. After 24 hours, the solutions from the ampoules were filtered to recover the spores, the filters were washed with 0.1% peptone water, and these were incubated on TSA plates for up to 10 days at 32° C. to 33° C., after which the colonies were enumerated.

CCN=C=NCCCN(C)C.Cl [EDC, 1-ethyl-3(3-dimethylaminopropyl) carbodiimide hydrochloride]
kill of spores [1]: complete kill
sterilization of tissue samples [2]: effectively sterilized
kill of spores (spores Bacillus subtilis): complete kill
